Measurements reported in US10736880B2, “Therapeutics for preterm labor management” (THE BOARD OF REGENTS OF THE UNIVERSITY OF TEXAS SYSTEM, priority 2015, dated 2020).
Several values for one entry are separate records, joined by “and”; a condition that tells them apart may be missing. Equal values may be shown once. Where a SMILES comes first, the peptide text is derived from it. Bridges are numbered along the chain shown (N, C = ends). [ ]: non-standard residue; d: D form. Orn = NCCC[C@H](N)C(=O)O; Mpa = O=C(O)CCS

Experiments:
[1] = Indomethacin levels in uterus, placenta and fetus after IND or LIP-IND (Example 1); type: in vivo, pregnant mouse; details: four hours following administration, mean ± sem; for concentration at 4 h: female, mouse
[2] = tested on: Prostaglandin E2 (PGE2); assay: PGE2 levels in uterine tissue after administration (Example 1); type: in vivo, pregnant mouse; details: four hours following administration
[3] = IND concentrations in maternal uterus and fetus by LC-MS/MS; type: in vivo, pregnant CD1 mice; details: female, CD1, mouse, intravenous, 1 mg/kg
Protocol: Biodistribution study in vivo. […] The in vivo doses were maintained across the study. After 4 h, pregnant mice were sacrificed by CO2 inhalation, followed by laparotomy to retrieve maternal liver, uteri, placentas and fetuses. The onset of action of LIP-IND-ORA is unknown when administered intravenously. […] Based on these prior studies, 4 h was chosen as the period of exposure.
Uterine and fetal tissues were homogenized in 1 mL of ice-cold methanol/water (7:3 v/v). Phenacetin (final concentration 20 ng/mL) was added to each sample before centrifugation at 15,000 rpm for 10 min. Supernatant was dried under nitrogen and reconstituted in 0.1% formic acid aqueous solution followed by protein precipitation with acetonitrile (1:2). Samples were centrifuged again, supernatant was transferred to vial and 10 μL was injected to Shimadzu triple quad 8040 MS connected to LC system. […] Method parameters were: LOD=3.9 ng/mL (accuracy 76%, S/N>3); LOQ=15.6 ng/mL (accuracy 85%; CV<10%; S/N>10) with correlation coefficient for linear regression R2=0.992.

[4] = tested on: uterus isolated from pregnant mice; assay: Uterine contractility ex vivo, pregnant mouse; details: absence of oxytocin, 40 min incubation, IND 10-5 mol/L, n=6, mean±SEM
Source text: (§1) Uterine contractility ex vivo. An established ex vivo pregnant mouse or human models of uterine contractility was used to measure the ability of LIP-IND-ORA to inhibit uterine contractions. For mice, on GD19, timed-pregnant animals (N=6) underwent CO2 inhalation euthanasia, the maternal uteri were excised and placed into Krebs physiological solution. In the case of human tissue, strips from uterine biopsies obtained at cesarean section from non-laboring, term, healthy women were used. Uterine ring segments, 4 mm in width, were cut, and the fetuses and placentas were gently removed. […]
(§2) Changes in isometric tension were recorded with isometric force transducers (Harvard Apparatus, South Natik, Mass.) connected and stored to an online computer with data acquisition software (WINDAQ-200; DATAQ). The data was acquired and analyzed using Windaq data acquisition system (Dataq Instruments Inc, Akron, Ohio). Spontaneous contractile activity for each uterine ring was analyzed as an integral activity over 40 min before (basal activity) and after application of each study drug. […] OXY induced contractile response was expressed as an integral activity over 20 min of each OXY dose and the baseline uterine contractility54,55,56. […] Data was expressed as mean±SEM.

[5] = tested on: strips from uterine biopsies obtained at cesarean section; assay: Human myometrial contractility study (organ bath); details: highest concentration of 10^−6
Source text: as §1, §2

[6] = tested on: prostaglandin E2 (PGE2); assay: PGE2 in uterine tissue incubated ex vivo, ELISA; set-up: species or system mouse; details: 40 min incubation, mean±SEM
Protocol: Another set of pregnant CD1 mice at GD 19 (n=5) was used to evaluate uterus PGE2 levels. […] PGE2 levels in each sample were then determined based on the instructions in the ELISA kit (ADI-901-001, Enzo Life Science, New York, USA). The concentration of PGE2 were expressed as pg/mL and reported as the mean±SEM.

[7] = tested on: LPS-induced preterm birth; assay: LPS-induced preterm birth in vivo; set-up: species or system pregnant CD1 mice; details: IND 1 mg/kg daily tail vein
Protocol: Preterm birth in vivo. The established in vivo preterm pregnant mouse model was used to test the ability of LIP-IND-ORA to prevent preterm birth. LPS is a commonly used model to induce labor in murine models. On GD 16, timed-pregnant CD1 mice were administered lipopolysaccharide (LPS, Sigma, USA) (25 μg/kg) via intraperitoneal injection. […] Since the LIP-IND-ORA solution color was visibly pink and due to limited resources to create a placebo, the randomization was not blinded. Each day after the LPS administration, the preterm birth rate was determined as the number of pregnant mice spontaneously delivering prior to GD18. Animals were housed in single cages and were monitored by either direct observation or by video camera for the duration of the treatment period to confirm timing of delivery. The rate of preterm birth was expressed as percent and length of pregnancy after LPS administration was expressed in hours. Results were reported as median±sem.

[8] = tested on: preterm birth; details: prior experiments, 90% in control; cited from earlier work
[9] = ORA levels in maternal organs by LC-MS/MS; type: in vivo, pregnant mice; details: after LIP-IND-ORA
Source text: To enable faster clinical translation of the proposed approach, a clinically used^33 oxytocin receptor antagonist (ORA, or atosiban) was used as the targeting element. […] Thus, the goal of using ORA as a safe targeting moiety for pregnant women was successfully in delivering indomethacin to the uterus directly. The principles of nanomedicine have been applied to optimize tocolytics for the treatment of preterm labor, and the novel drug delivery system can provide a path for a new paradigm-shifting direction to advance the field of obstetrics.

COc1ccc2c(c1)c(CC(=O)O)c(C)n2C(=O)c1ccc(Cl)cc1 [IND, indomethacin]
concentration at 4 h ([1]; fetus): 81.3 ± 24.7 ng/g | concentration at 4 h ([1]; placenta): 650 ± 78.4 ng/g | concentration at 4 h ([1]; uterus): 237 ± 21.6 ng/g | Indomethacin level normalized per weight, fetus [1]: 81.3 ± 24.7 ng/g | PGE2 levels in the uterus [2]: 493.3 ± 89.0 pg/mL | concentration at 4 h ([3]; fetus): 245 ± 61.7 ng/g | concentration at 4 h ([3]; uterus): 965 ± 312 ng/g | percent inhibition of uterine contractions [4]: 34.3±6.6% and 34.3±5.9% | percent uterine contractions [5]: 67.2±8.4% | PGE2 levels in the uterus exposed ex vivo [6]: 2,587.4±676.5 pg/mL | length of pregnancy after LPS administration [7]: 30.0 ± 4.9 h | rate of LPS-induced preterm birth ([7]; delivery prior to GD18): 54.5% | rate of preterm birth [8]: 30%

CCOc1ccc(C[C@H]2NC(=O)CCSSC[C@@H](C(=O)N3CCC[C@H]3C(=O)N[C@@H](CCCN)C(=O)NCC(N)=O)NC(=O)[C@H](CC(N)=O)NC(=O)[C@H]([C@@H](C)O)NC(=O)[C@H]([C@@H](C)CC)NC2=O)cc1 [ORA, atosiban] ([Mpa][dY](Et)ITNCP[Orn]G-NH2; disulfide 1-6)
ORA levels in the maternal organs [9]: not detectable
